Experimental data from paper PMC3763812 (Chemical research in toxicology, 2013).
Entries after “also recorded” stand apart in the source; their conditions may differ.

Assays:
[1] = tested on: ds-DNA with cyt P4501A1, 1B1 and 1A2 supersomes; details: electro-optical toxicity screening arrays
[2] = with exogenous activation; cited from earlier work
[3] = tested on: ds-DNA in DNA/RuPVP/1A2 films (cyt P450 1A2 supersomes); test: ECL genotoxicity array, DNA/RuPVP/1A2 films; format: biochemical, human; details: 25 μM B[a]P or 50 μM B[ghi]P with NADPH
[4] = tested on: DNA in PDDA/supersomes/PDDA/DNA biocolloids (1A1 and 1B1 supersomes); format: biochemical, human; details: 20-mins reaction of B[ghi]P with biocolloid enzyme/DNA reactors
mouse skin = details: cited from earlier work
DNA [5] = details: in vivo and in vitro; cited from earlier work
[6] = tested on: ds-DNA in DNA/RuPVP/1B1 films (cyt P450 1B1 supersomes); test: ECL genotoxicity array, DNA/RuPVP/1B1 films; format: biochemical, human; details: 25 μM B[a]P or 50 μM B[ghi]P with NADPH
DNA [7] = details: activated by light without metabolic activation; cited from earlier work

For `c1cc2ccc3ccc4ccc5cccc6c(c1)c2c3c4c56` [B[ghi]P, benzo[ghi]perylene], the “Lower rate of DNA damage by B[ghi]P metabolites than benzo[a]pyrene” value [1] is given as 3 fold, the “Mutagenicity in the Ames test” value [2] is given as “displays mutagenicity” and the “Normalized ECL turnover rate (R)” value [3] is given as 23.3 μg^−1•protein•min^−1•mM. The “Detection of DNA adducts of B[ghi]P 3,4-oxide (mass transitions of Table 3)” value [4] was “no peaks were found”, the Tumor initiation (mouse skin) was “not found to initiate tumors; also recorded: negative” and the “Binding of active metabolites to DNA” value (DNA [5]) was “active metabolites can bind to DNA”. The “Normalized ECL turnover rate (R)” value [6] was 34.3 μg^−1•protein•min^−1•mM and the “DNA damage in Comet assays” value (DNA [7]) was “yielded DNA damage”.
